Results as given in ChEMBL document CHEMBL5620367, “Discovery of new tetrahydroisoquinolines as potent and selective LSD1 inhibitors for the treatment of MLL-rearranged leukemia” (Eur J Med Chem, 2023).
The source made the active and inactive calls. No cut-off for these calls is given here.

How the values were obtained:
[1] = biological target: T1, MAO-B (amine oxidase [flavin-containing] B) (Homo sapiens, UniProt P27338); assay: Inhibition of N-terminal FLAG-tagged recombinant human MAO-B expressed in baculovirus infected Sf9 cells upto 10 uM preincubated for 15 mins followed by addition of luciferin derivative substrate measured after 1 hr by Luciferase Glo assay relative to control; settings: probe luciferin derivative substrate, time 75 min
T1 sequence (P27338 whole entry): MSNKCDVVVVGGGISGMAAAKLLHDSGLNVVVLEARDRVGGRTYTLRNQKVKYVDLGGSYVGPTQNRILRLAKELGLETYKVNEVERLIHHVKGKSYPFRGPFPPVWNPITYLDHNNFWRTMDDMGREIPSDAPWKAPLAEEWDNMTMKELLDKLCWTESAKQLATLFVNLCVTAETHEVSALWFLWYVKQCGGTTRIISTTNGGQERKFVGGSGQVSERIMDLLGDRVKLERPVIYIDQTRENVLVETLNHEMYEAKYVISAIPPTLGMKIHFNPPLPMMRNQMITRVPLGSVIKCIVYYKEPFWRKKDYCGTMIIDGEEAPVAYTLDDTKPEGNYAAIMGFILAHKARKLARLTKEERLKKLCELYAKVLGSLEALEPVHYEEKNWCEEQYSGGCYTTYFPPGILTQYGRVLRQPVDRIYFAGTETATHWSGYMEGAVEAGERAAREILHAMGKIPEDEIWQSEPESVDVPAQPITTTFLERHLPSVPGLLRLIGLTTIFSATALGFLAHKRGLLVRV

MV4-11 [2] = assay: Induction of cell differentiation in human MV4-11 cells assessed as CD11b level at 30 uM incubated for 3 days by Annexin V staining based flow cytometry (reference value: 8.58 %); assay type: functional; settings: time 3 day
MOLM-13 [3] = assay: Cytotoxicity against human MOLM-13 cells incubated for 7 days by CCK8 assay; settings: MOLM-13, 168 h
MOLM-13 [4] = assay: Induction of cell differentiation in human MOLM-13 cells assessed as increase in CD11b level upto 400 uM incubated for 7 days […]; assay type: functional, cell-based; settings: time 7.0 day
MV4-11 [5] = assay: Antitumor activity against human MV4-11 cells xenografted in NOD-SCID mouse assessed as increase in hemoglobin level at 50 to 78.7 mg/kg, sc measured after 33 days; assay type: functional, organism-based; settings: dose 50-78.7 mg/kg, time 33.0 day
MV4-11 [6] = assay: Induction of apoptosis in human MV4-11 cells assessed as early apoptotic cells at 10 uM incubated for 3 days by Annexin V staining based flow cytometry (reference value: […] %); assay type: functional; settings: time 3 day
MV4-11 [7] = assay: Induction of apoptosis in human MV4-11 cells assessed as early apoptotic cells at 100 uM incubated for 3 days by Annexin V staining based flow cytometry (reference value: […] %); assay type: functional; settings: time 3 day
MV4-11 [8] = assay: Anti-invasive activity against human MV4-11 cells xenografted in NOD-SCID mouse assessed as reduction in tumor formation in ovarian tissue at 50 mg/kg, sc measured after 33 days; assay type: functional, organism-based; settings: time 33.0 day
MV4-11 [9] = assay: Antitumor activity against human MV4-11 cells xenografted in NOD-SCID mouse assessed as decrease in leukemic cells in spleen at 78.7 mg/kg, sc measured after 33 days relative to control; assay type: functional; parameters: scale not given: the % may be the effect or the level left; settings: time 33 day
MV4-11 [10] = assay: Antitumor activity against human MV4-11 cells xenografted in NOD-SCID mouse assessed as increase in RBC at 50 to 78.7 mg/kg, sc measured after 33 days; assay type: functional, organism-based; settings: dose 50-78.7 mg/kg, time 33.0 day
MV4-11 [11] = assay: Induction of apoptosis in human MV4-11 cells assessed as viable cells at 10 uM incubated for 3 days by Annexin V staining based flow cytometry (reference value: 89.63 %); assay type: functional; settings: MV4-11, 72 h, time 3 day, read-out: Activity
MOLM-13 [12] = assay: Induction of apoptosis in human MOLM-13 cells assessed as late apoptotic cells at 100 uM incubated for 3 days by Annexin V staining based flow cytometry (reference value: 3.29 %); assay type: functional; settings: time 3 day
MV4-11 [13] = assay: Induction of cell differentiation in human MV4-11 cells assessed as CD11b level at 100 uM incubated for 3 days by Annexin V staining based flow cytometry (reference value: 8.58 %); assay type: functional; settings: time 3 day
MV4-11 [14] = assay: Antitumor activity against human MV4-11 cells xenografted in NOD-SCID mouse assessed as decrease in leukemic cells in blood at 78.7 mg/kg, sc measured after 33 days relative to control; assay type: functional; parameters: scale not given: the % may be the effect or the level left; settings: time 33 day
MV4-11 [15] = assay: Induction of apoptosis in human MV4-11 cells assessed as viable cells at 30 uM incubated for 3 days by Annexin V staining based flow cytometry (reference value: 89.63 %); assay type: functional; settings: MV4-11, 72 h, time 3 day, read-out: Activity
MV4-11 [16] = assay: Induction of apoptosis in human MV4-11 cells assessed as late apoptotic cells at 100 uM incubated for 3 days by Annexin V staining based flow cytometry (reference value: 7.29 %); assay type: functional; settings: time 3 day
MV4-11 [17] = assay: Anti-invasive activity against human MV4-11 cells xenografted in NOD-SCID mouse assessed as reduction in tumor formation in ovarian tissue at 78.7 mg/kg, sc measured after 33 days; assay type: functional, organism-based; settings: time 33.0 day
[18] = Toxicity in NOD-SCID mouse xenografted with human MV4-11 cells assessed as animal survival at 50 to 78.7 mg/kg, sc measured after 33 days; assay type: organism-based; settings: in vivo, 792 h, dose 50-78.7 mg/kg, time 33 day
MOLM-13 [19] = assay: Induction of apoptosis in human MOLM-13 cells assessed as early apoptotic cells at 30 uM incubated for 3 days by Annexin V staining based flow cytometry (reference value: 4.94 %); assay type: functional; settings: time 3 day
MOLM-13 [20] = assay: Induction of apoptosis in human MOLM-13 cells assessed as viable cells at 100 uM incubated for 3 days by Annexin V staining based flow cytometry (reference value: 90.54 %); assay type: functional; settings: MOLM-13, 72 h, time 3 day, read-out: Activity
MOLM-13 [21] = assay: Anti-cancer activity against human MOLM-13 cells assessed as reduction in Meis1 mRNA level upto 100 uM by qRT-PCR analysis relative to control; assay type: functional; parameters: scale not given: the % may be the effect or the level left; settings: up to 100 µM
MV4-11 [22] = assay: Cytotoxicity against human MV4-11 cells incubated for 7 days by CCK8 assay; settings: MV4-11, 168 h
MV4-11 [23] = assay: Induction of apoptosis in human MV4-11 cells assessed as late apoptotic cells at 10 uM incubated for 3 days by Annexin V staining based flow cytometry (reference value: 7.29 %); assay type: functional; settings: time 3 day
MV4-11 [24] = assay: Induction of cell differentiation in human MV4-11 cells assessed as increase in CD11b level upto 400 uM incubated for 7 days […]; assay type: functional, cell-based; settings: time 7.0 day
MOLM-13 [25] = assay: Induction of cell differentiation in human MOLM-13 cells assessed as increase in CD14 level upto 100 uM incubated for 3 days by Annexin V staining based flow cytometry; assay type: functional; settings: time 3.0 day
MOLM-13 [26] = assay: Induction of cell differentiation in human MOLM-13 cells assessed as CD11b level at 10 uM incubated for 3 days by Annexin V staining based flow cytometry (reference value: 13.77 %); assay type: functional; settings: time 3 day
MOLM-13 [27] = assay: Induction of cell differentiation in human MOLM-13 cells assessed as CD11b level at 100 uM incubated for 3 days by Annexin V staining based flow cytometry (reference value: 13.77 %); assay type: functional; settings: time 3 day
MOLM-13 [28] = assay: Induction of apoptosis in human MOLM-13 cells assessed as necrotic cells at 10 uM incubated for 3 days by Annexin V staining based flow cytometry (reference value: 1.23 %); assay type: functional; settings: time 3 day

O=C(O)C(F)(F)F.O=[N+]([O-])c1ccc(C2NCCc3cc(O)c(O)cc32)cc1 (stereo not drawn)
inhibition at 1 h, up to 10 µM [1]: < 30%
Activity (MV4-11 [2]): 34.78%
IC50 (MOLM-13 [3]): 83 µM
Activity (MOLM-13 [4]): Active
Activity (MV4-11 [5]): Active
Activity (MV4-11 [6]): 7.06%
Activity (MV4-11 [7]): 9.09%
Activity (MV4-11 [8]): inactive
Activity (MV4-11 [9]): 87%
Activity (MV4-11 [10]): Active
viability at 10 µM (MV4-11 [11]): 66.2%
Activity (MOLM-13 [12]): 18.07%
Activity (MV4-11 [13]): 69.19%
Activity (MV4-11 [14]): 81%
viability at 30 µM (MV4-11 [15]): 57.8%
Activity (MV4-11 [16]): 32.33%
Activity (MV4-11 [17]): Active
Activity [18]: Non-Toxic
Activity (MOLM-13 [19]): 7.55%
viability at 100 µM (MOLM-13 [20]): 56%
Activity (MOLM-13 [21]): ~60%
IC50 (MV4-11 [22]): 42 µM
Activity (MV4-11 [23]): 22.73%
Activity (MV4-11 [24]): Active
Activity (MOLM-13 [25]): Active
Activity (MOLM-13 [26]): 29.35%
Activity (MOLM-13 [27]): 93.75%
Activity (MOLM-13 [28]): 6.32%
